According to patent US20200339691A1, “PROTEINACEOUS MOLECULES AND USES THEREFOR” (priority 2018, published 2020):
Where a SMILES comes first, the peptide text is derived from it. The star is where a group is joined. Myristoyl = CCCCCCCCCCCCCC(=O)*

Experiments:
[1] = system: CD44^hiCD24^lo CSCs in MDA-MB-231 cells; experiment: FACS analysis of CD44^hiCD24^lo cancer stem cells in MDA-MB-231 cells treated with P1 analogues; type: cell-based, human; conditions: 50 μM peptide, 48 hours; for CD44^hiCD24^lo CSCs (%) / COI, Live Single CD44^hiCD24^lo CSCs (Cell Count): n = 1; for Average Inhibition of CSCs (%) / CD44^hiCD24^lo CSCs (%) Repeat 1 / CD44^hiCD24^lo CSCs (%) Repeat 2 / CD44^hiCD24^lo CSCs (%) Repeat 3: n = 3
Experimental: Analogues of P1 (Table 6) were designed and synthesized in accordance with the procedure of Example 5. The ability of these analogues to inhibit cancer stem cells was determined using FACS analysis on MDA-MB-231 cells, which constitutively contain approximately 90% CD44^hiCD24^lo cancer stem cells, treated with the peptides.
(§1) Non-adherent cells were removed during the washing steps.

[2] = system: MDA-MB-231 cells; type: cell-based, human; conditions: 50 μM peptide, 48 hours, n = 1;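 on COI, Live Single Cells (Cell Count): live means Hoechst-negative events among single cells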
Text: as §1

Row | SMILES | Inhibition of CSCs (%) Repeat 1 [1] | Inhibition of CSCs (%) Repeat 2 [1] | Inhibition of CSCs (%) Repeat 3 [1] | CD44^hiCD24^lo CSCs (%) [1] | COI, Live Single CD44^hiCD24^lo CSCs (Cell Count) [1] | Average Inhibition of CSCs (%) [1] | CD44^hiCD24^lo CSCs (%) Repeat 1 [1] | CD44^hiCD24^lo CSCs (%) Repeat 2 [1] | CD44^hiCD24^lo CSCs (%) Repeat 3 [1] | COI (Cell Count) [2] | COI, Live Single Cells (Cell Count) [2] | COI, Single (Cell Count) [2] | Total Cell Count [2]
1 | CCCCCCCCCCCCCC(=O)N[C@H](C(=O)N[C@@H](Cc1ccccc1)C(=O)N[C@H](C(=O)N[C@@H](Cc1ccccc1)C(=O)N[C@@H](CCCNC(=N)N)C(=O)N[C@@H](CC(C)C)C(=O)N[C@@H](C)C(=O)N[C@@H](CCCCN)C(=O)NCC(=O)N[C@@H](CCCNC(=N)N)C(=O)N[C@@H](CCSC)C(=O)N[C@@H](CCSC)C(=O)N[C@@H](CC(=O)O)C(=O)N[C@H](C(=O)N[C@@H](CCCCN)C(=O)N[C@@H](CCCCN)C(N)=O)C(C)C)[C@@H](C)CC)[C@@H](C)O [Peptide 2815308, Myristoyl-TFIFRLAKGRMMDVKK-NH2] (Myristoyl-TFIFRLAKGRMMDVKK-NH2) | 51.70% | 45.08% | 50.47% | 54.60% | 89 | 49.08% | 43.29% | 49.27% | 44.44% | 340 | 163 | 301 | 9921
2 | CCCCCCCCCCCCCC(=O)N[C@H](C(=O)N[C@@H](Cc1ccccc1)C(=O)N[C@H](C(=O)N[C@@H](Cc1ccccc1)C(=O)N[C@@H](CCCNC(=N)N)C(=O)N[C@@H](CC(C)C)C(=O)N[C@@H](CCCNC(=N)N)C(=O)N[C@@H](CCCCN)C(=O)N[C@@H](C)C(=O)N[C@@H](CCCNC(=N)N)C(=O)N[C@@H](CCSC)C(=O)N[C@@H](CCSC)C(=O)N[C@@H](CC(=O)O)C(=O)N[C@H](C(=O)N[C@@H](CCCCN)C(=O)N[C@@H](CCCCN)C(N)=O)C(C)C)[C@@H](C)CC)[C@@H](C)O [Peptide 2815310, Myristoyl-TFIFRLRKARMMDVKK-NH2] (Myristoyl-TFIFRLRKARMMDVKK-NH2) | 38.81% | 39.40% | 41.35% | 57.14% | 4 | 39.85% | 54.84% | 54.37% | 52.63% | 18 | 7 | 16 | 8883
3 | CCCCCCCCCCCCCC(=O)N[C@H](C(=O)N[C@@H](Cc1ccccc1)C(=O)N[C@H](C(=O)N[C@@H](Cc1ccccc1)C(=O)N[C@@H](CCCNC(=N)N)C(=O)N[C@@H](CC(C)C)C(=O)N[C@@H](CCCNC(=N)N)C(=O)N[C@@H](CCCCN)C(=O)NCC(=O)N[C@@H](CCCNC(=N)N)C(=O)N[C@@H](CCSC)C(=O)N[C@@H](C)C(=O)N[C@@H](CC(=O)O)C(=O)N[C@H](C(=O)N[C@@H](CCCCN)C(=O)N[C@@H](CCCCN)C(N)=O)C(C)C)[C@@H](C)CC)[C@@H](C)O [Peptide 2815313, Myristoyl-TFIFRLRKGRMADVKK-NH2] (Myristoyl-TFIFRLRKGRMADVKK-NH2) | 22.34% | 23.02% | 27.96% | 61.54% | 80 | 24.44% | 69.60% | 69.06% | 64.65% | 165 | 130 | 148 | 8909
